Test results: patent publication US20050249808A1, “NSAIDs compositions containing tartaric acid” (priority 2001, published 2005)
Where two headings read alike, the source gives them in different places.

Tests used:
[1] = Oral bioavailability of ibuprofen crushed tablets in control rats; type: in vivo; conditions: male, Sprague-Dawley, rat, plasma, 20 mg/kg, oral 20 mg/kg ibuprofen as crushed tablets, read-out: AUC (0-8)
Procedure: The animal models are Adult male Sprague-Dawley rats with body weight of 250-300 g, and which were cared for in accordance with the principles and guidelines of the Canadian Council of Animal Care. All rats were catheterized in the right jugular vein for sample collection.
The tablets were crushed gently and small pieces were administered into the stomach via a plastic tube followed by 0.5 mL tap water. […] They had free access to water.

[2] = cited from earlier work; for AUC0-2h: 600 mg ibuprofen dose
[3] = parts of drug dissolving in 10,000 parts of water; cited from earlier work

SMILES	AUC(0-t) [1] [ng·h/mL]	change in mean time to peak concentration caused by surgery ([2]; 200 mg and 600 mg doses, dental surgery)	AUC0-6h, effect of surgery ([2]; dental surgery)	solubility in water [3]	AUC0-2h ([2]; after dental extraction) [ng·h/mL]	AUC0-2h ([2]; before dental extraction) [ng·h/mL]
CC(C)Cc1ccc(C(C)C(=O)O)cc1 (racemic) [ibuprofen, (±)-2-(4-Isobutylphenyl)propionic acid]	139000	two hour delay	significantly reduced	less than 1 part	–	–
CC(C)Cc1ccc([C@@H](C)C(=O)O)cc1 [R-ibuprofen, R(−)-2-(4-isobutylphenyl)propionic acid]	–	–	–	–	5800 ± 7100	14400 ± 9500
CC(C)Cc1ccc([C@H](C)C(=O)O)cc1 [S-ibuprofen, S(+)-2-(4-isobutylphenyl)propionic acid]	–	–	–	–	7200 ± 5500	14200 ± 6100
